Experimental data published in US6040331A, “Nerve cell protective agents” (Mochida Pharmaceutical Co., Ltd., priority 1996, dated 2000).
Converted amounts (≈) assume the structure as drawn. Counter-ions that a name gives are not always drawn. *1 amine or outer side, *2 acyl side, *3 side chain or, on linkers, in order; H or OH if unused. Where a SMILES comes first, the peptide text is derived from it. Bridges are numbered along the chain shown (N, C = ends). Roman numbers before positions name the chains, in order. [ ]: non-standard residue; d: D form. Actinocin(9to1) = Cc1c2oc3c(C)ccc(C(=O)[*:1])c3nc-2c(C(=O)[*:2])c(N)c1=O; NMeV = CN[C@H](C(=O)O)C(C)C; Sar = CNCC(=O)O

Tested on: neurons isolated from the cerebrum
Test: Naturally occurring neuronal death suppressing action (serum-free cultivation, Crystal Violet)
Format: cell-based, embryonic day 16 rats
Conditions: Rattus norvegicus, Neuron, 72 h; 0.3 μg/ml; serum-free, 3 days; read-out: Suppression of Naturally Occurring Neuronal Death
Method: The action of compounds to suppress the naturally occurring death of neurons was evaluated in terms of their effectiveness in suppressing or inhibiting the naturally occurring death of neurons as induced by exposing cultured neurons to serum-free cultivation conditions. An experiment was run by a method adapted from the method of Shimojo et al., Neurosci. Lett., 151, 170, 1993. Specifically, neurons were isolated from the cerebrum of embryonic day 16 rats in the usual manner, suspended in a DMEM/F12 medium containing 1% fetal bovine serum, seeded onto a polylysine-coated culture plate at a density of 5×10^4 cells per square centimeter and cultivated at 37° C. in 95% air+5% CO2. After one day of culture, the medium was replaced with a serum-free medium containing a compound to be tested and the cultivation was continued for 3 more days. Subsequently, the cells were fixed with 1% glutaraldehyde and their number was determined by calorimetric quantification using Crystal Violet (Anal. Biochem., 182, 16-19, 1989). The percent suppression of neuronal death by the test compound was determined by the following formula:
(§1) 100×(ODtest-ODcontrol)/(ODnormal-ODcontrol) (%)
where ODtest is the number of cells (absorbance) in the group of addition of test compound after serum removal, ODcontrol is the number of cells (absorbance) in a control group after serum removal, and ODnormal is the number of cells (absorbance) in a control (normal) group without serum removal.

Compound | inhibition at 0.3 µg/mL
Cc1ccc(-c2[nH]c3cccc4c3c2CCC4N)cc1 (stereo not drawn) [Example 99, 5-amino-2-(4-methylphenyl)-1,3,4,5-tetrahydrobenz[cd]indole] | 59%
NC1CCc2c(-c3ccc(Cl)cc3)[nH]c3c(Cl)ccc1c23 (stereo not drawn) [Example 103, 5-amino-8-chloro-2-(4-chlorophenyl)-1,3,4,5-tetrahydrobenz[cd]indole] | 56%
NC1CCc2c(-c3ccccc3O)[nH]c3cccc1c23 (stereo not drawn) [Example 185, 5-amino-2-(2-hydroxyphenyl)-1,3,4,5-tetrahydrobenz[cd]indole] | 100%
NC1CCc2c(-c3ccccc3)[nH]c3ccc(O)c1c23 (stereo not drawn) [Example 174, 5-amino-6-hydroxy-2-phenyl-1,3,4,5-tetrahydrobenz[cd]indole] | 64%

Same assay, conditions: Rattus norvegicus, Neuron, 72 h; 1.0 μg/ml; serum-free, 3 days; read-out: Suppression of Naturally Occurring Neuronal Death

Compound | inhibition at 1 µg/mL
CNC1CCc2c(-c3ccccc3)[nH]c3cccc1c23 (stereo not drawn) [Example 130, 5-(N-methylamino)-2-phenyl-1,3,4,5-tetrahydrobenz[cd]indole] | 76%
c1ccc(CNC2CCc3c(-c4ccccc4)[nH]c4cccc2c34)cc1 (stereo not drawn) [Example 153, 5-(N-benzylamino)-2-phenyl-1,3,4,5-tetrahydrobenz[cd]indole] | 100%
OC1CCN(C2CCc3c(-c4ccccc4)[nH]c4cccc2c34)CC1 (stereo not drawn) [Example 216, 5-(4-hydroxypiperidino)-2-phenyl-1,3,4,5-tetrahydrobenz[cd]indole] | 75%
NC1CCc2c(-c3ccc(Cl)cc3)[nH]c3cccc1c23 (stereo not drawn) [Example 96, 5-amino-2-(4-chlorophenyl)-1,3,4,5-tetrahydrobenz[cd]indole] | 37%
c1ccc(-c2[nH]c3cccc4c3c2CCC4N2CCOCC2)cc1 (stereo not drawn) [Example 148, 5-morpholino-2-phenyl-1,3,4,5-tetrahydrobenz[cd]indole] | 65%

Same assay, conditions: Rattus norvegicus, Neuron, 72 h; 3.0 μg/ml; serum-free, 3 days; read-out: Suppression of Naturally Occurring Neuronal Death

Compound | inhibition at 3 µg/mL
CC(=O)NC1CCc2c(-c3ccccc3)[nH]c3cccc1c23 (stereo not drawn) [Example 124, 5-(N-acetylamino)-2-phenyl-1,3,4,5-tetrahydrobenz[cd]indole] | 23%
c1ccc(-c2[nH]c3cccc4c3c2CCC4N2CCCCC2)cc1 (stereo not drawn) [Example 151, 2-phenyl-5-piperidino-1,3,4,5-tetrahydrobenz[cd]indole] | 98%
Cn1c(-c2ccccc2)c2c3c(cccc31)C(NCC(=O)O)CC2 (stereo not drawn) [Example 223, 5-[N-(carboxymethyl)]amino-1-methyl-2-phenyl-1,3,4,5-tetrahydrobenz[cd]indole hydrochloride] | 81%
NC1CCc2c(-c3ccccc3)[nH]c3ccc(Br)c1c23 (stereo not drawn) [Example 87, 5-amino-6-bromo-2-phenyl-1,3,4,5-tetrahydrobenz[cd]indole] | 84%
CN(C)C1CCc2c(-c3ccccc3)[nH]c3cccc1c23 (stereo not drawn) [Example 121, 5-(N,N-dimethylamino)2-phenyl-1,3,4,5-tetrahydrobenz[cd]indole] | 72%
CCOC(=O)CNC1CCc2c(-c3ccccc3)n(C)c3cccc1c23 (stereo not drawn) [Example 244, 5-[N-(ethoxycarbonylmethyl)]amino-1-methyl-2-phenyl-1,3,4,5-tetrahydrobenz[cd]indole hydrochloride] | 57%

Same assay, conditions: serum-free condition

Compound | suppression of death of neurons under the serum-free condition (in words)
C[C@@H]1C[C@@H]([C@H](O)CC2CC(=O)NC(=O)C2)C(=O)[C@@H](C)C1 [cycloheximide, reference compound] | suppressed
O=C(O)C1=CC(=C(c2ccc(O)c(C(=O)O)c2)c2ccc(O)c(C(=O)O)c2)C=CC1=O [aurin tricarboxylic acid, reference compound] | suppressed
Cc1c2oc3c(C)ccc(C(=O)N[C@@H]4C(=O)N[C@H](C(C)C)C(=O)N5CCC[C@H]5C(=O)N(C)CC(=O)N(C)[C@@H](C(C)C)C(=O)O[C@@H]4C)c3nc-2c(C(=O)N[C@@H]2C(=O)N[C@H](C(C)C)C(=O)N3CCC[C@H]3C(=O)N(C)CC(=O)N(C)[C@@H](C(C)C)C(=O)O[C@@H]2C)c(N)c1=O [actinomycin D, reference compound] (I: T[dV]P[Sar][NMeV] / II: T[dV]P[Sar][NMeV]; ester I:1-I:C, II:1-II:C; linker I:N-II:N via Actinocin(9to1)) | suppressed

Tested on: neurons isolated from the cerebrum
Test: Veratrine-induced neuronal death suppressing action (MTT)
Format: cell-based, embryonic day 16 rats
Conditions: Rattus norvegicus, Neuron; veratrine 0.35 mM; MTT after 24 h; probit method; read-out: IC50 (50% suppression of veratrine-induced neuronal death)
Method: The action of compounds to suppress the death of neurons induced by veratrine was evaluated in terms of their effectiveness in suppressing the neuronal death as induced by direct addition of veratrine. An experiment was run by a method adapted from the method of Powells et al., J. Pharmacol. Exp. Therapeutics, 255, 1117, 1987. Specifically, neurons were isolated from the cerebrum of embryonic day 16 rats in the usual manner, suspended in a MEM medium containing 10% fetal bovine serum, seeded onto a polylysine-coated culture plate at a density of 2.5×10^5 cells per square centimeter and cultivated at 37° C. in 95% air+5% CO2. Starting on the fifth day of cultivation, treatment was conducted with 10 μM of cytosine arabinoside for 2 days and the cultivation was continued until the 12th day, when a test was run as follows. The cells were treated with a buffer solution containing veratrine (0.35 mM) and a test compound, replaced in a serum-containing medium and cultivated for another 24 h. Subsequently, the number of viable cells was determined by calorimetric quantification using 3-(4,5-dimethylthiazol-2-yl)-2,5-diphenyltetrazolium bromide (MTT). The percent suppression of neuronal death by the test compound was determined by the following formula:
as §1
where ODtest is the number of cells (absorbance) in the group of addition of veratrine+test compound, ODcontrol is the number of cells (absorbance) in a control group of addition of veratrine, and ODnormal is the number of cells (absorbance) in a control (normal) group without addition of veratrine.
In addition, IC50 values indicating the effectiveness in achieving 50% suppression of neuronal death were calculated by the probit method on the basis of the result from more than one concentration.

Compound | IC50
COc1ccccc1-c1[nH]c2cccc3c2c1CCC3N (stereo not drawn) [Example 184, 5-amino-2-(2-methoxyphenyl)-1,3,4,5-tetrahydrobenz[cd]indole] | 0.8 µg/mL (≈ 2.87 µM)
NC1CCc2c(-c3ccc(F)cc3)[nH]c3cccc1c23 (stereo not drawn) [Example 95, 5-amino-2-(4-fluorophenyl)-1,3,4,5-tetrahydrobenz[cd]indole] | 3.1 µg/mL (≈ 11.6 µM)
COc1ccc2[nH]c(-c3ccccc3)c3c2c1C(N)CC3 (stereo not drawn) [Example 110, 5-amino-6-methoxy-2-phenyl-1,3,4,5-tetrahydrobenz[cd]indole] | 1.8 µg/mL (≈ 6.47 µM)
COC(=O)c1ccc(-c2[nH]c3c(Cl)ccc4c3c2CCC4N)cc1 (stereo not drawn) [Example 171, 5-amino-8-chloro-2-(4-methoxycarbonylphenyl)-1,3,4,5-tetrahydrobenz[cd]indole] | 1.9 µg/mL (≈ 5.57 µM)
Cc1cc2c3c(c(-c4ccccc4)[nH]c3c1)CCC2N (stereo not drawn) [Example 113, 5-amino-7-methyl-2-phenyl-1,3,4,5-tetrahydrobenz[cd]indole] | 0.7 µg/mL (≈ 2.67 µM)
NC1CCc2c(-c3ccccc3)[nH]c3ccc([N+](=O)[O-])c1c23 (stereo not drawn) [Example 90, 5-amino-6-nitro-2-phenyl-1,3,4,5-tetrahydrobenz[cd]indole] | 0.7 µg/mL (≈ 2.39 µM)
COC(=O)C1CCN(C2CCc3c(-c4ccccc4)[nH]c4cccc2c34)CC1.Cl (stereo not drawn) [Example 225, 5-(4-methoxycarbonylpiperidino)-2-phenyl-1,3,4,5-tetrahydrobenz[cd]indole hydrochloride] | 2.2 µg/mL
Cl.Cn1c(-c2ccccc2Cl)c2c3c(cccc31)C(N1CCOCC1)CC2 (stereo not drawn) [Example 239, 2-(2-chlorophenyl)-1-methyl-5-morpholino-1,3,4,5-tetrahydrobenz[cd]indole hydrochloride] | 2.2 µg/mL
Cn1c(-c2ccccc2)c2c3c(cccc31)C(N)CC2 (stereo not drawn) [Example 107, 5-amino-1-methyl-2-phenyl-1,3,4,5-tetrahydrobenz[cd]indole] | 0.33 µg/mL (≈ 1.26 µM)
CCCN(CCC)C1CCc2c(-c3ccccc3)[nH]c3cccc1c23 (stereo not drawn) [Example 150, 5-(N,N-dipropylamino)-2-phenyl-1,3,4,5-tetrahydrobenz[cd]indole] | 1.2 µg/mL (≈ 3.61 µM)
NC1CCc2c(-c3ccccc3)[nH]c3ccc(O)c1c23 (stereo not drawn) [Example 174, 5-amino-6-hydroxy-2-phenyl-1,3,4,5-tetrahydrobenz[cd]indole] | 3.4 µg/mL (≈ 12.9 µM)

Tested on: pyramidal cells in the hippocampus CA1 region
Test: Effectiveness in gerbil model of delayed neuronal death (damage score, 4 min ischemia)
Format: in vivo
Conditions: 2 mg/kg, carotid arteries 5 min before ischemia; score 0-4; ischemic control 2.9 ± 0.3; mean ± standard error (Table 3-1)
Method: Specifically, the cervical part of a gerbil under anesthesia by halothane inhalation was incised along the median line to expose the carotid artery on both sides, which were occuluded with clips for 4 min and thereafter brought back to patency. After suturing the incised part, the anesthetization was turned off and the animal was brought back to keeping under normal condition. Three days after loading of cerebral ischemia, the gerbil was anesthetized by administering pentobarbital, fixed by transcardiac formalin perfusion and had the brain isolated. A coronary slice including the fimbria hippocampi was prepared from the isolated brain and stained with Cresyl Violet. The pyramidal cells in the hippocampus CA1 region were examined under an optical microscope and the degree of damage was rated by the following scores: 0, no damage; 1, slight damage; 2, moderate damage; 3, significant damage; 4, total damage. Each test compound was administered through the carotid arteries 5 min before ischemia.

Compound | Score of damage to hippocampus CA1
NC1CCc2c(-c3ccccc3)[nH]c3ccc(Br)c1c23 (stereo not drawn) [Example 87, 5-amino-6-bromo-2-phenyl-1,3,4,5-tetrahydrobenz[cd]indole] | 1.9 ± 0.6

Same assay, conditions: 5 mg/kg, carotid arteries 5 min before ischemia; score 0-4; ischemic control 2.9 ± 0.3; mean ± standard error (Table 3-1)

Compound | Score of damage to hippocampus CA1
CNC1CCc2c(-c3ccccc3)[nH]c3cccc1c23 (stereo not drawn) [Example 130, 5-(N-methylamino)-2-phenyl-1,3,4,5-tetrahydrobenz[cd]indole] | 1.9 ± 0.1

Same assay, conditions: 10 mg/kg, carotid arteries 5 min before ischemia; score 0-4; ischemic control 2.9 ± 0.3; mean ± standard error (Table 3-1)

Compound | Score of damage to hippocampus CA1
Cn1c(-c2ccccc2)c2c3c(cccc31)C(N)CC2 (stereo not drawn) [Example 107, 5-amino-1-methyl-2-phenyl-1,3,4,5-tetrahydrobenz[cd]indole] | 0.5 ± 0.5

Same assay, conditions: 10 mg/kg, carotid arteries 5 min before ischemia; score 0-4; ischemic control 3.5 ± 0.4; mean ± standard error (Table 3-2)

Compound | Score of damage to hippocampus CA1
Cl.Cn1c(-c2ccccc2F)c2c3c(cccc31)C(N1CCOCC1)CC2 (stereo not drawn) [Example 240, 2-(2-fluorophenyl)-1-methyl-5-morpholino-1,3,4,5-tetrahydrobenz[cd]indole hydrochloride] | 2.1 ± 0.5
